# Measurements as given in US20140243403A1, “TREATING COLORECTAL, PANCREATIC, AND LUNG CANCER” (The General Hospital Corporation, priority 2011, published 2014).
# How the values were obtained:
# MCF10A = assay: Sensitivity of non-transformed epithelial cell line; assay type: cell-based
# Method: (§1) (A) 5Z-7-oxozeaenol IC50 values for colorectal cancer cell lines of various genotypes as well as 2 “normal” epithelial cell lines, MCF10A and MDCK (light gray bars). Data are represented as the mean of 3 independent experiments+/−SEM.
# (§2) To determine if sensitivity to TAK1 inhibition is specific to colon cancer-derived cell lines, sensitivity to 5Z-7-oxozeaenol was assessed in 5 KRAS mutant pancreatic ductal adenocarcinoma (PDAC) and 4 non-small cell lung cancer (NSCLC) cells, all of which are APC wild-type (FIG. 9B).
# MDCK = assay: as above; assay type: cell-based
# Method: as §1, §2
# [1] = system: KRAS mutant pancreatic ductal adenocarcinoma (PDAC) cells; assay: Sensitivity of KRAS mutant PDAC cell lines; assay type: cell-based; details: 5 KRAS mutant PDAC cell lines, APC wild-type
# Method: (B) 5Z-7-oxozeaenol IC50 values for KRAS mutant PDAC and NSCLC cell lines.
# as §2
# [2] = system: threonine 172 phosphorylation of the AMP-activated kinase (p-AMPK); assay: AMPK threonine 172 phosphorylation, western blot; assay type: cell-based, human; details: 24 h
# Method: (B) Effects of TAK1 inhibition on apoptosis and signaling in a representative panel of KRAS-independent and KRAS-dependent cell lines, 24 h after treatment. PARP and caspase-3 cleavage are shown as indicators of apoptosis, and AMPK threonine 172 (T172) phosphorylation is shown as a downstream indicator of TAK1 signaling activity. GAPDH serves as a gel loading control.
# Pharmacologic TAK1 inhibition triggered apoptosis in KRAS-dependent colon cancer cells, as measured by PARP and caspase-3 cleavage (FIG. 3B). […] Thus, low concentrations of 5Z-7-oxozeaenol, in the range of 0.625 to 1.25 μM, promote apoptosis selectively in KRAS-dependent colon cancer cells.
# The following antibodies were used for western blotting in the above examples: KRAS OP-24, Pan-Ras OP-40 (Calbiochem); PARP (BD Pharmigen, 4C10-5); BMP-7 (Abcam); phospho-ERK, Axin2, phospho Smad1 and total Smad1/5/8, phospho- and total AMPK, phospho- and total AKT, cleaved Caspase-3 (Cell Signaling); GAPDH (Chemicon); E-Cadherin, beta-catenin (BD Pharmigen) Syk, TAK1, total ERK1 (Santa Cruz). For secreted BMP-7 levels, 1×10^6 HT29 cells stably expressing ER-KRAS(12V) were plated in 10 cm dishes. 24 h post-plating, 10 ml serum-free DME/F12 medium (Gibco) was added. Conditioned media was collected 24 h post-induction of ER-KRAS(12V) with 4-HT and concentrated to […], using AMICON® Ultra-4 Centrifugal Filter Units with 3 kDa membranes. […]
smiles,measurement,setting,value
COc1cc(O)c2c(c1)/C=C/C[C@H](O)[C@H](O)C(=O)/C=C\C[C@H](C)OC2=O [5Z-7-oxozeaenol],IC50,MCF10A,5.5 µM
same,IC50,MDCK,22 µM
same,sensitivity to 5Z-7-oxozeaenol,[1],largely refractory
same,threonine 172 phosphorylation of AMPK (p-AMPK),[2]; KRAS-dependent colon cancer cells,reduced
same,AMPK phosphorylation,[2]; KRAS-independent cells,unaffected
